The results in this text go back to ChEMBL document CHEMBL4699602, “Stapled and Xenopus Glucagon-Like Peptide 1 (GLP-1)-Based Dual GLP-1/Gastrin Receptor Agonists with Improved Metabolic Benefits in Rodent Models of Obesity and Diabetes” (J Med Chem, 2020).

Structures are written as SMILES. Where a SMILES comes first, the peptide text is derived from it.

Glucagon-like peptide 1 receptor, sequence (P43220 whole entry): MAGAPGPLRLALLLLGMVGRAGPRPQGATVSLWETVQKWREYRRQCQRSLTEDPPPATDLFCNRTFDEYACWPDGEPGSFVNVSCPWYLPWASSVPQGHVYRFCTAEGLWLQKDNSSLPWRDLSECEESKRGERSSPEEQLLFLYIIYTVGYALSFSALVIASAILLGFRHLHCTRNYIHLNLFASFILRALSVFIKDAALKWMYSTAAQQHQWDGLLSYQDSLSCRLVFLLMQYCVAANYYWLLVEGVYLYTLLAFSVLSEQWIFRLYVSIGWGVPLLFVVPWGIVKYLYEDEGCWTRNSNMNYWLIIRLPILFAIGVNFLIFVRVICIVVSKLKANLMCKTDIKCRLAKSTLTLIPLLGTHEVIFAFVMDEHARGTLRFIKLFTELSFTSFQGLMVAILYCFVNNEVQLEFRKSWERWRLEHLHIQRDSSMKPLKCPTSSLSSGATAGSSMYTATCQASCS

The experiment addresses Glucagon-like peptide 1 receptor (Homo sapiens, UniProt P43220). Nature of the experiment: Agonist activity at human GLP-1R expressed in HEK293 cells assessed as stimulation of cAMP accumulation incubated for 20 mins. The experiment is classed as functional, cell-based.
As usually defined, the EC50 is the midpoint of the concentration-response curve. On to `CC[C@H](C)[C@H](NC(=O)[C@H](CC(C)C)NC(=O)[C@H](Cc1c[nH]c2ccccc12)NC(=O)[C@H](CCC(=O)O)NC(=O)[C@@H](NC(=O)[C@H](Cc1ccccc1)NC(=O)[C@H](CCC(=O)O)NC(=O)[C@H](CCCCN)NC(=O)[C@H](C)NC(=O)[C@H](CS)NC(=O)[C@H](CCC(=O)O)NC(=O)[C@H](CCC(=O)O)NC(=O)[C@H](CCC(=O)O)NC(=O)[C@H](CC(C)C)NC(=O)[C@H](Cc1ccc(O)cc1)NC(=O)[C@H](CCC(=O)O)NC(=O)[C@H](CS)NC(=O)[C@@H](NC(=O)[C@H](CC(=O)O)NC(=O)[C@H](CC(N)=O)NC(=O)[C@@H](NC(=O)[C@H](Cc1ccc(O)cc1)NC(=O)[C@@H](NC(=O)CNC(=O)[C@H](CCC(=O)O)NC(=O)C(C)(C)NC(=O)[C@@H](N)Cc1c[nH]cn1)[C@@H](C)O)[C@@H](C)O)C(C)C)[C@@H](C)CC)C(=O)N[C@@H](CCCCN)C(=O)NCC(=O)N[C@@H](CCCCN)C(=O)N1CCC[C@H]1C(=O)N[C@@H](CO)C(=O)N[C@@H](CO)C(=O)NCC(=O)N[C@@H](C)C(=O)N1CCC[C@H]1C(=O)N1CCC[C@H]1C(=O)N1CCC[C@H]1C(=O)N[C@@H](CO)C(N)=O` (HELM PEPTIDE1{H.[Aib].E.G.T.Y.T.N.D.V.C.E.Y.L.E.E.E.C.A.K.E.F.I.E.W.L.I.K.G.K.P.S.S.G.A.P.P.P.S.[am]}$$$$V2.0), for which the EC50 was 0.15 nM. As for `CC[C@H](C)[C@H](NC(=O)[C@H](CC(C)C)NC(=O)[C@H](Cc1c[nH]c2ccccc12)NC(=O)[C@H](CCC(=O)O)NC(=O)[C@@H](NC(=O)[C@H](Cc1ccccc1)NC(=O)[C@H](CCC(=O)O)NC(=O)[C@H](CCCCN)NC(=O)[C@H](C)NC(=O)[C@H](CS)NC(=O)[C@H](CCC(=O)O)NC(=O)[C@H](CCC(=O)O)NC(=O)[C@H](CCC(=O)O)NC(=O)[C@H](CC(C)C)NC(=O)[C@H](Cc1ccc(O)cc1)NC(=O)[C@H](CCC(=O)O)NC(=O)[C@H](CS)NC(=O)[C@@H](NC(=O)[C@H](CC(=O)O)NC(=O)[C@H](CC(N)=O)NC(=O)[C@@H](NC(=O)[C@H](Cc1ccc(O)cc1)NC(=O)[C@@H](NC(=O)CNC(=O)[C@H](CCC(=O)O)NC(=O)C(C)(C)NC(=O)[C@@H](N)Cc1c[nH]cn1)[C@@H](C)O)[C@@H](C)O)C(C)C)[C@@H](C)CC)C(=O)N[C@@H](CCCCN)C(=O)NCC(=O)N[C@@H](CCCCN)C(N)=O` (HELM PEPTIDE1{H.[Aib].E.G.T.Y.T.N.D.V.C.E.Y.L.E.E.E.C.A.K.E.F.I.E.W.L.I.K.G.K.[am]}$$$$V2.0), the EC50 was found to be 0.32 nM. For the compound `CC[C@H](C)[C@H](NC(=O)[C@H](CC(C)C)NC(=O)[C@H](Cc1c[nH]c2ccccc12)NC(=O)[C@H](CCC(=O)O)NC(=O)[C@@H](NC(=O)[C@H](Cc1ccccc1)NC(=O)[C@H](CCC(=O)O)NC(=O)[C@H](CCCCN)NC(=O)[C@H](CS)NC(=O)[C@H](C)NC(=O)[C@H](CCC(=O)O)NC(=O)[C@H](CCC(=O)O)NC(=O)[C@H](CCC(=O)O)NC(=O)[C@H](CC(C)C)NC(=O)[C@H](Cc1ccc(O)cc1)NC(=O)[C@H](CS)NC(=O)[C@@H](NC(=O)[C@@H](NC(=O)[C@H](CC(=O)O)NC(=O)[C@H](CC(N)=O)NC(=O)[C@@H](NC(=O)[C@H](Cc1ccc(O)cc1)NC(=O)[C@@H](NC(=O)CNC(=O)[C@H](CCC(=O)O)NC(=O)C(C)(C)NC(=O)[C@@H](N)Cc1c[nH]cn1)[C@@H](C)O)[C@@H](C)O)C(C)C)[C@@H](C)O)[C@@H](C)CC)C(=O)N[C@@H](CCCCN)C(=O)NCC(=O)N[C@@H](CCCCN)C(=O)N1CCC[C@H]1C(=O)N[C@@H](CO)C(=O)N[C@@H](CO)C(=O)NCC(=O)N[C@@H](C)C(=O)N1CCC[C@H]1C(=O)N1CCC[C@H]1C(=O)N1CCC[C@H]1C(=O)N[C@@H](CO)C(N)=O` (HELM PEPTIDE1{H.[Aib].E.G.T.Y.T.N.D.V.T.C.Y.L.E.E.E.A.C.K.E.F.I.E.W.L.I.K.G.K.P.S.S.G.A.P.P.P.S.[am]}$$$$V2.0), the EC50 stood at 0.12 nM. In the case of `CC[C@H](C)[C@H](NC(=O)[C@H](CC(C)C)NC(=O)[C@H](Cc1c[nH]c2ccccc12)NC(=O)[C@H](CCC(=O)O)NC(=O)[C@@H](NC(=O)[C@H](Cc1ccccc1)NC(=O)[C@H](CCC(=O)O)NC(=O)[C@H](CCCCN)NC(=O)[C@H](CS)NC(=O)[C@H](C)NC(=O)[C@H](CCC(=O)O)NC(=O)[C@H](CCC(=O)O)NC(=O)[C@H](CCC(=O)O)NC(=O)[C@H](CC(C)C)NC(=O)[C@H](Cc1ccc(O)cc1)NC(=O)[C@H](CS)NC(=O)[C@@H](NC(=O)[C@@H](NC(=O)[C@H](CC(=O)O)NC(=O)[C@H](CC(N)=O)NC(=O)[C@@H](NC(=O)[C@H](Cc1ccc(O)cc1)NC(=O)[C@@H](NC(=O)CNC(=O)[C@H](CCC(=O)O)NC(=O)C(C)(C)NC(=O)[C@@H](N)Cc1c[nH]cn1)[C@@H](C)O)[C@@H](C)O)C(C)C)[C@@H](C)O)[C@@H](C)CC)C(=O)N[C@@H](CCCCN)C(=O)NCC(=O)N[C@@H](CCCCN)C(N)=O` (HELM PEPTIDE1{H.[Aib].E.G.T.Y.T.N.D.V.T.C.Y.L.E.E.E.A.C.K.E.F.I.E.W.L.I.K.G.K.[am]}$$$$V2.0), the EC50 was 0.26 nM. Take `CC[C@H](C)[C@H](NC(=O)[C@H](CC(C)C)NC(=O)[C@H](Cc1c[nH]c2ccccc12)NC(=O)[C@H](CCC(=O)O)NC(=O)[C@@H](NC(=O)[C@H](Cc1ccccc1)NC(=O)[C@H](CCC(=O)O)NC(=O)[C@H](CS)NC(=O)[C@H](C)NC(=O)[C@H](C)NC(=O)[C@H](CCC(=O)O)NC(=O)[C@H](CCC(=O)O)NC(=O)[C@H](CCC(=O)O)NC(=O)[C@H](CC(C)C)NC(=O)[C@H](CS)NC(=O)[C@H](CCC(=O)O)NC(=O)[C@@H](NC(=O)[C@@H](NC(=O)[C@H](CC(=O)O)NC(=O)[C@H](CC(N)=O)NC(=O)[C@@H](NC(=O)[C@H](Cc1ccc(O)cc1)NC(=O)[C@@H](NC(=O)CNC(=O)[C@H](CCC(=O)O)NC(=O)C(C)(C)NC(=O)[C@@H](N)Cc1c[nH]cn1)[C@@H](C)O)[C@@H](C)O)C(C)C)[C@@H](C)O)[C@@H](C)CC)C(=O)N[C@@H](CCCCN)C(=O)NCC(=O)N[C@@H](CCCCN)C(=O)N1CCC[C@H]1C(=O)N[C@@H](CO)C(=O)N[C@@H](CO)C(=O)NCC(=O)N[C@@H](C)C(=O)N1CCC[C@H]1C(=O)N1CCC[C@H]1C(=O)N1CCC[C@H]1C(=O)N[C@@H](CO)C(N)=O` (HELM PEPTIDE1{H.[Aib].E.G.T.Y.T.N.D.V.T.E.C.L.E.E.E.A.A.C.E.F.I.E.W.L.I.K.G.K.P.S.S.G.A.P.P.P.S.[am]}$$$$V2.0): the EC50 amounted to 0.19 nM. With `CC[C@H](C)[C@H](NC(=O)[C@H](CC(C)C)NC(=O)[C@H](Cc1c[nH]c2ccccc12)NC(=O)[C@H](CCC(=O)O)NC(=O)[C@@H](NC(=O)[C@H](Cc1ccccc1)NC(=O)[C@H](CCC(=O)O)NC(=O)[C@H](CS)NC(=O)[C@H](C)NC(=O)[C@H](C)NC(=O)[C@H](CCC(=O)O)NC(=O)[C@H](CCC(=O)O)NC(=O)[C@H](CCC(=O)O)NC(=O)[C@H](CC(C)C)NC(=O)[C@H](CS)NC(=O)[C@H](CCC(=O)O)NC(=O)[C@@H](NC(=O)[C@@H](NC(=O)[C@H](CC(=O)O)NC(=O)[C@H](CC(N)=O)NC(=O)[C@@H](NC(=O)[C@H](Cc1ccc(O)cc1)NC(=O)[C@@H](NC(=O)CNC(=O)[C@H](CCC(=O)O)NC(=O)C(C)(C)NC(=O)[C@@H](N)Cc1c[nH]cn1)[C@@H](C)O)[C@@H](C)O)C(C)C)[C@@H](C)O)[C@@H](C)CC)C(=O)N[C@@H](CCCCN)C(=O)NCC(=O)N[C@@H](CCCCN)C(N)=O` (HELM PEPTIDE1{H.[Aib].E.G.T.Y.T.N.D.V.T.E.C.L.E.E.E.A.A.C.E.F.I.E.W.L.I.K.G.K.[am]}$$$$V2.0), the EC50 amounted to 0.49 nM. In the case of `CC[C@H](C)[C@H](NC(=O)[C@H](CC(C)C)NC(=O)[C@H](Cc1c[nH]c2ccccc12)NC(=O)[C@H](CCC(=O)O)NC(=O)[C@@H](NC(=O)[C@H](CS)NC(=O)[C@H](CCC(=O)O)NC(=O)[C@H](CCCCN)NC(=O)[C@H](C)NC(=O)[C@H](C)NC(=O)[C@H](CCC(=O)O)NC(=O)[C@H](CCC(=O)O)NC(=O)[C@H](CS)NC(=O)[C@H](CC(C)C)NC(=O)[C@H](Cc1ccc(O)cc1)NC(=O)[C@H](CCC(=O)O)NC(=O)[C@@H](NC(=O)[C@@H](NC(=O)[C@H](CC(=O)O)NC(=O)[C@H](CC(N)=O)NC(=O)[C@@H](NC(=O)[C@H](Cc1ccc(O)cc1)NC(=O)[C@@H](NC(=O)CNC(=O)[C@H](CCC(=O)O)NC(=O)C(C)(C)NC(=O)[C@@H](N)Cc1c[nH]cn1)[C@@H](C)O)[C@@H](C)O)C(C)C)[C@@H](C)O)[C@@H](C)CC)C(=O)N[C@@H](CCCCN)C(=O)NCC(=O)N[C@@H](CCCCN)C(=O)N1CCC[C@H]1C(=O)N[C@@H](CO)C(=O)N[C@@H](CO)C(=O)NCC(=O)N[C@@H](C)C(=O)N1CCC[C@H]1C(=O)N1CCC[C@H]1C(=O)N1CCC[C@H]1C(=O)N[C@@H](CO)C(N)=O` (HELM PEPTIDE1{H.[Aib].E.G.T.Y.T.N.D.V.T.E.Y.L.C.E.E.A.A.K.E.C.I.E.W.L.I.K.G.K.P.S.S.G.A.P.P.P.S.[am]}$$$$V2.0), the EC50 turned out to be 0.22 nM.

As to `CC[C@H](C)[C@H](NC(=O)[C@H](CC(C)C)NC(=O)[C@H](Cc1c[nH]c2ccccc12)NC(=O)[C@H](CCC(=O)O)NC(=O)[C@@H](NC(=O)[C@H](CS)NC(=O)[C@H](CCC(=O)O)NC(=O)[C@H](CCCCN)NC(=O)[C@H](C)NC(=O)[C@H](C)NC(=O)[C@H](CCC(=O)O)NC(=O)[C@H](CCC(=O)O)NC(=O)[C@H](CS)NC(=O)[C@H](CC(C)C)NC(=O)[C@H](Cc1ccc(O)cc1)NC(=O)[C@H](CCC(=O)O)NC(=O)[C@@H](NC(=O)[C@@H](NC(=O)[C@H](CC(=O)O)NC(=O)[C@H](CC(N)=O)NC(=O)[C@@H](NC(=O)[C@H](Cc1ccc(O)cc1)NC(=O)[C@@H](NC(=O)CNC(=O)[C@H](CCC(=O)O)NC(=O)C(C)(C)NC(=O)[C@@H](N)Cc1c[nH]cn1)[C@@H](C)O)[C@@H](C)O)C(C)C)[C@@H](C)O)[C@@H](C)CC)C(=O)N[C@@H](CCCCN)C(=O)NCC(=O)N[C@@H](CCCCN)C(N)=O` (HELM PEPTIDE1{H.[Aib].E.G.T.Y.T.N.D.V.T.E.Y.L.C.E.E.A.A.K.E.C.I.E.W.L.I.K.G.K.[am]}$$$$V2.0), the EC50 came out at 0.59 nM.
